“Also recorded” adds a separate entry of the source.
Legend:
L1 = L1 (Homo sapiens, UniProt P32004); assay: Neurite outgrowth of rat cerebellar neurons on L1 expressing 3T3 monolayers (Example 15); type: cell-based; design: expressed in transfected cells; rat cerebellar neurons on top; conditions: 125 μg/ml; read-out: % Inhibition of L1 Response
Method: (§1) Cell culture and neurite outgrowth assays. Co-cultures of cerebellar neurons on monolayers of control 3T3 cells and monolayers of transfected 3T3 cells that express physiological levels of chick N-cadherin or human L1 were established as previously described (Williams et al., Neuron 13:583-594, 1994). In brief, 80,000 3T3 cells (control and transfected) were plated into individual chambers of an eight-chamber tissue culture slide coated with polylysine and fibronectin and cultured in DMEM/10% FCS. After 24 hours, when confluent monolayers had formed, the medium was removed and 3000 cerebellar neurons isolated from post-natal day 2-3 rats were plated into each well in SATO media (Doherty et al., Nature 343:464-466, 1990) supplemented with 2% FCS. All of the test peptides were added immediately before the neurons as a 2× stock prepared in SATO/2% FCS. The co-cultures were maintained for 16-18 hours, at which time they were fixed and immunostained for GAP-43 which is present only in the neurons and delineates the neuritic processes. The mean length of the longest neurite per cell was measured for 150-200 neurons sampled in replicate cultures as previously described (Williams et al., Neuron 13:583-594, 1994). […] Dose-response curves were evaluated and the EC50 values determined.
Other cell adhesion molecules, such as L1, can stimulate neurite outgrowth, and this response shares the same downstream signaling steps as the N-cadherin response. […] As previously reported, L1 stimulated neurite outgrowth from cerebellar neurons.

[1] = test system: Human saphenous vein vascular smooth muscle cells; assay: Vascular smooth muscle cell apoptosis and death in aggregates (agarose-coated wells); type: cell-based; conditions: 0.5 mg/mL
Method: Human saphenous vein vascular smooth muscle cells were explanted from surplus segments of vein from patients undergoing coronary artery bypass surgery. Cells were maintained in Dulbecco's modified essential medium supplemented with […], 2 mmol/L L-glutamine and 10% fetal calf serum and were grown in agarose-coated wells. Under these conditions the cells are unable to attach to the underlying substratum and adhere to one another by cell-cell contacts only, forming aggregates. The percentage of dead cells was assessed by staining with Trypan blue or by fixing the cells and staining with Hoescht (H-33342). Trypan blue stain is absorbed only by non-viable cells when the integrity of the cell membrane is breached (Freshney, R. (1987) Culture of Animal Cells: A Manual of Basic Technique, p. 117, Alan R. Liss, Inc., New York) whereas Hoescht stain enters living cells (Shapiro (1981) Cytometry 2, 143-150).

SKOV3 tumors = assay: Induction of apoptosis in SKOV3 tumors in nude mice (Apoptag); type: in vivo, mouse
Method: SKOV3 cells (ATCC) were grown to 70% confluence in Minimum Essential Medium (Life Technologies, Grand Island, N.Y.) supplemented with 10% Fetal Bovine Serum (Wisent, St. Bruno, Quebec) in a humidified atmosphere containing 5% CO2. Cells were then dissociated with 0.02% PBS/EDTA. Total cell count and viable cell number was determined by trypan blue stain and a hemacytometer.
Approximately 1×10^7 cells were resuspended in 400 μl saline and injected in 6-week-old CD-1 nude mice (female, Charles River) subcutaneously. After 20 days of continuous tumor growth, tumor size was about 4.0 mm. The tumor-bearing animals were then injected intraperitoneally every day with 20 mg/kg of the representative peptide modulating agent N—Ac-CHAVC-NH2 (SEQ ID NO:10) or saline, for 48 hours, 96 hours, 120 hours or 168 hours. […]
Tumor tissue was dissected and fixed in PBS with 4% paraformaldehyde for 48 hours. Specimens were then dehydrated in a series of alcohol incubations, and embedded in paraffin wax. Apoptosis was assessed using the Apoptag kit (Intergen, Purchase N.Y.) according to the manufacturer's protocol, with slight modifications. More specifically, sections were deparaffinized and re-hydrated. After a five minute wash with PBS, the slides were treated with 20 μg/ml Proteinase K in PBS for 15 minutes at room temperature. This was followed by two washes with distilled water (2 minutes each wash). […]

control 3T3 cells = assay: Neurite outgrowth of rat cerebellar neurons on control 3T3 monolayers (Example 15); type: cell-based; conditions: increasing concentrations (FIG. 23)
Method: as §1

Rat = assay: Acute toxicity study in rat; type: in vivo; conditions: intravenously, 100 mg/kg
N-CAM = target: T1, N-CAM (Homo sapiens, UniProt P13591); assay: Neurite outgrowth on N-CAM expressing 3T3 monolayers (Example 2); type: cell-based, mouse; conditions: 500 μg/mL
T1 construct: expressed in transfected cells; host or cells: 3T3 fibroblasts (monolayer); mouse post-natal day 3 cerebellar neurons on top

[2] = test system: Human saphenous vein vascular smooth muscle cells; assay: Vascular smooth muscle cell apoptosis at migrating wound edge, in situ end labeling; type: cell-based; conditions: 1 mg/mL, 24 hours after wounding, n=4, p<0.05
Method: Human saphenous vein vascular smooth muscle cells were explanted from surplus segments of vein from patients undergoing coronary artery bypass surgery. Cells were maintained in Dulbecco's modified essential medium supplemented with […], 2 mmol/L L-glutamine and 10% fetal calf serum and were grown to confluence on glass coverslips. The cell layer was then subjected to scrape-wounding by drawing a fine cell scraper across the coverslip. Proliferation of the vascular smooth muscle cells was inhibited by addition of 2 mM hydroxyurea to the culture media. Vascular smooth muscle cells that are treated in this manner respond to the wounding of the confluent monolayer by migrating into the wound (Hammerle et al (1991) Vasa 20, 207-215). The percentage of apoptotic cells in the migrating edge (outermost 100 μm from the wound) was assessed by in situ end labeling at 24 hours after wounding (as in George et al (2001) Gene Therapy 8 668-676).

L1, sequence (P32004 20-1257): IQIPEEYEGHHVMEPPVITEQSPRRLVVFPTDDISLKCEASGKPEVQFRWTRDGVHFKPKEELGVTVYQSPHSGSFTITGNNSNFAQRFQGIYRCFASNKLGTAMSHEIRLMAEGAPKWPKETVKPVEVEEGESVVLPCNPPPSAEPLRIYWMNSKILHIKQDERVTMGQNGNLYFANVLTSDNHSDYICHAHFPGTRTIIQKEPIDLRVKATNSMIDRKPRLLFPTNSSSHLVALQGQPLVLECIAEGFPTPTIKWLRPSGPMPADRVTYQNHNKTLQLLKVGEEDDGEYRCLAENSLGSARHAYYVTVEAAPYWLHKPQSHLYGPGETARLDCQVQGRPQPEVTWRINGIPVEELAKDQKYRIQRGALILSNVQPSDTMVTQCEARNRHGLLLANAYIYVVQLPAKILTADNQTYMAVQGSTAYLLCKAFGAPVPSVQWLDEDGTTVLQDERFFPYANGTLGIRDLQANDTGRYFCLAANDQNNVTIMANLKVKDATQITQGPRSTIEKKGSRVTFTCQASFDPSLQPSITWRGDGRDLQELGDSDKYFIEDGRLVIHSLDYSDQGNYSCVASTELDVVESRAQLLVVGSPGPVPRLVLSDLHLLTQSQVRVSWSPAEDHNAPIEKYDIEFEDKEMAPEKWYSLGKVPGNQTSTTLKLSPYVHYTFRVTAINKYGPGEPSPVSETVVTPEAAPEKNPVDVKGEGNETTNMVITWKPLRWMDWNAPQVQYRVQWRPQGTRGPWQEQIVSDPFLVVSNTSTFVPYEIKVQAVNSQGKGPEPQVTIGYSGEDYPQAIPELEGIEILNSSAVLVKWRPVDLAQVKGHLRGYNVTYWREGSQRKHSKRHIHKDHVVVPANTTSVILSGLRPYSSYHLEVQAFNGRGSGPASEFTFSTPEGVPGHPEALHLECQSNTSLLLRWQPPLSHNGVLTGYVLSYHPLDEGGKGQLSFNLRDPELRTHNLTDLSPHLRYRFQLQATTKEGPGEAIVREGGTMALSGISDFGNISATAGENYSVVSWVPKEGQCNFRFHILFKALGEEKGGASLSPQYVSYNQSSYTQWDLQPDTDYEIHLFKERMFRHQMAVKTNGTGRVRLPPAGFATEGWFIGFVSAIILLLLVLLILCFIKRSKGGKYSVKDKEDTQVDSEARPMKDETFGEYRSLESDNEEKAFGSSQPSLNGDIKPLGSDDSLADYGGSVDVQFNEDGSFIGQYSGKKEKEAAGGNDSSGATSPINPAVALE
T1 sequence (P13591 20-858, species assumed): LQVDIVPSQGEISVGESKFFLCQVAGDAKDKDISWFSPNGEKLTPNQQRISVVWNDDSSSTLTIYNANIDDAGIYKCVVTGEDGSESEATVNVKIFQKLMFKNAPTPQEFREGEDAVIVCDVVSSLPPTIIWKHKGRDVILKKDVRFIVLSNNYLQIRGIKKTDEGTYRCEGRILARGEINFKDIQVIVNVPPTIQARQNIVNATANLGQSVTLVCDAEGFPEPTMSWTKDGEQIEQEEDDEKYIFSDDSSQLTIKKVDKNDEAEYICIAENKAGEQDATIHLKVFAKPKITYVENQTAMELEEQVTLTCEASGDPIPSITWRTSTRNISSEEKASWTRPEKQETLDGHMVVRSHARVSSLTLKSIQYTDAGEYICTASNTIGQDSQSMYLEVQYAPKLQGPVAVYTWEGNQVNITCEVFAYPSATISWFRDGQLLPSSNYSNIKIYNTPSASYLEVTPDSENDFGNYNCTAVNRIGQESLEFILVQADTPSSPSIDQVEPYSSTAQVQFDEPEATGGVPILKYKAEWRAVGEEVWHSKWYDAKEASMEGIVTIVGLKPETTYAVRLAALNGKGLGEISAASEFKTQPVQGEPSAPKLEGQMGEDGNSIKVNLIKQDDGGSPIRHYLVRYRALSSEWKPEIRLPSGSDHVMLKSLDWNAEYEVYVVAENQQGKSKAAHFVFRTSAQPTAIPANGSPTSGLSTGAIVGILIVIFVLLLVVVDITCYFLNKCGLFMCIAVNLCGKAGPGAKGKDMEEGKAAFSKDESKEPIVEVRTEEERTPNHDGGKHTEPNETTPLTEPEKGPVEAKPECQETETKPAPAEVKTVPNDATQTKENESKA

CC(=O)N[C@H]1CSSC[C@@H](C(N)=O)NC(=O)[C@H](C(C)C)NC(=O)[C@H](C)NC(=O)[C@H](Cc2c[nH]cn2)NC1=O [N—Ac—CHAVC—NH2, N-Ac-Cys-His-Ala-Val-Cys-NH2]
inhibition at 125 µg/mL (L1): 41.6 ± 8.6%
aggregation of vascular smooth muscle cells [1]: inhibits aggregation
increase in apoptosis and cell death in aggregates ([1]; 24 hr, n=4, p<0.05): 2 fold
apoptotic cells in tumor sections (SKOV3 tumors; 20 mg/kg ip every day for 48, 96, 120 or 168 hours): show an increase in apoptotic cells with longer treatment
apoptotic cells in tumor sections (SKOV3 tumors; 20 mg/kg once daily for four days, sacrificed 11 days after the last treatment): extensive area of apoptotic cells within the center of the tumor
effect on neurite extension over control 3T3 cells (control 3T3 cells): had no effect on the basal growth over 3T3 cells; also recorded: no significant effect on neurite extension over control 3T3 cells
gross or histopathological findings (Rat): no gross or histopathological findings related to the treatment
inhibition of neurite outgrowth on 3T3 cells expressing N-CAM (N-CAM): did not inhibit neurite outgrowth
increase in apoptosis at wound edge [2]: 3±1 fold
